# In patent publication US8318954B2, “Cleavable carnitine compound” (Nou Life Sciences, Inc., priority 2006, dated 2012):
# Entries after “also recorded” stand apart in the source; their conditions may differ.
# What was measured:
# diabetic rats [1] = conditions: streptozocin diabetic rats, sciatic nerve; amount administered not specified; cited from earlier work
# diabetic rats [2] = conditions: diabetic rat, 30 days after sciatic nerve cutting; diet: 200 mg/kg acetyl L-carnitine, 200 mg/kg carnitine mixture, 50 mg/kg α-lipoic acid daily; cited from earlier work
# Wobbler mice = conditions: twenty days oral, acetyl L-carnitine 200 mg/kg, carnitine mixture 200 mg/kg, α-lipoic acid 50 mg/kg; cited from earlier work
# [3] = tested on: streptozotocin-induced diabetic rats; conditions: 20 mg/kg/day for two weeks, six weeks after diabetes induction; vs untreated diabetic rats; cited from earlier work
# [4] = tested on: diabetic polyneuropathy patients; conditions: cited from earlier work
# mice and rats = conditions: mice and rats, cited from earlier work
# rats = conditions: 10 mg/kg cisplatin s.c. seven days, oral 300 mg/kg acetyl L-carnitine, 300 mg/kg carnitine mixture, 50 mg/kg α-lipoic acid; cited from earlier work
# C. elegans [5] = assay: Toxicity testing in C. elegans, 96 well plate, bacterial clearance (OD620); format: in vivo; conditions: highest concentration tested, 2 mM; L1-stage N2 animals, OD620 up to 44 hours; listed as LC
# Description: The work plan included a i) characterization of the compounds for toxicity in C. elegans and then, using subtoxic concentrations, a ii) characterization of compound effects on neuronal sensitivity as detected by TAV technology. Toxicity characterization follows a well established standard operating protocol used in previous toxicity-type assays in C. elegans. The initial TAV characterization of compound-mediated effects on C. elegans used a number of compound concentrations and incubation times that were selected by NemaRx as being most likely to detect any TAV-related effects that the compounds may have. […] 0% provides a ‘background’ measure, 6% typically gives intermediate TAV responses (and as such should provide a good starting point to detect compound-mediated increased TAV responses), and 12% usually gives robust responses. No obvious effects were detected for either of the four compounds. While the experimental setup provides a good first pass, the limitation lies in the relatively small number of animals that are assayed at each intensity (30). Subtle effects compound-mediated up-regulation at 6% laser intensity may be missed. • Single Intensity Testing: The two highest non-toxic compound concentrations for each of the four compounds were tested at 6% laser intensity. The number of datapoints collected was between 50-80 LA and >100 for the three other compounds. […] The experiment was carried out in quadruplicate. […] Stock Dilution Setup
# Two 96 well microtiter plates set up which were incubated at 20 C (both 96 well plates were identical, i.e. the experiment was done in duplicate). Each well on the plates was set up with 100 L1-stage N2 animals in NGM with a 1:20 dilution of concentrated HB101 E. coli (food source) in a volume of 50 μl. Compounds (see below) were then added to the wells. For water controls and compound stocks/dilutions in water (DH LA, NAC) 1 μl was added to each well (1:50 dilutions). For DMSO controls and compound stocks/dilutions in DMSO (LA) 0.5 μl was added to each well (1:100 dilutions). […]
# [6] = Hydrolysis study of LC Conjugate (pH/time study, followed by TLC); format: physicochemical
# Description: Control: Free lipoic acid 1% solution in methanol/water
# Substrate: LC Conjugate, 3% solution in methanol
# A study on the stability and cleavability of LC Conjugate was performed in water at pH ranged from 5.5 to 8.0 at RT (20° C.).
# The pH was adjusted using NaOH and HCl solutions.
# Since substrate and cleaved products are non-UV sensitive, TLC was used to follow the progress of hydrolysis.
# C. elegans [7] = assay: Thermal avoidance (TAV) 11 step dose response testing; format: in vivo; conditions: highest concentration of LC, laser intensities 0% to 100% in 10% intervals, quadruplicate
# Description: One 24 well microtiter plate was set up and incubated overnight on the shaker at 20° C. Each well on the plate was set up with 600 L3/L4-stage N2 animals in NGM with a 1:20 dilution of concentrated HB101 E. coli (food source) in a volume of 300 μl. Before the animal/HB101 solution was added, test compounds were pipetted into wells. For DMSO controls and compound stocks/dilutions in DMSO (LC) 3 μl was added to each well (1:100 dilutions). No OD620 measurements were taken but the animals were visually scored after 22 h incubation).
# Dose Responses—setup & general notes on analysis: Same as for previous dose response experiments except that the data collection settings were modified. Per plate settings for the dose response experiments were as follows: […]
compound,measurement,setting,value
"O=C(O)CCCCC1CCSS1 (centres unmarked) [LA, Lipoic acid]",NMCV,diabetic rats [1],39.9 ± 2.1 m/sec
same,Density of tibial nerve degenerate elements,diabetic rats [2],0.20 ± 0.04 per 100 nm^2
same,Number of tibial nerve degenerate elements,diabetic rats [2],590 ± 0.70
same,% increase in running time,Wobbler mice,40 ± 3.9%
same,sciatic endoneutral blood flow,[3],improved
same,sciatic motor nerve NCV,[3],improved
same,neuropathic symptoms and defects,[4]; 600 mg i.v. per day for 3 weeks,"appears to reduce pain, paraethesia and numbness, and to improve neuropathic defects"
same,neuropathic defects and cardiac autonomic neuropathy,[4]; subsequent oral treatment for 4-7 months,reduces neuropathic defects an improves cardiac autonomic neuropathy
same,tolerability and toxicity,mice and rats; individually or in combination at high doses,good tolerability and limited toxicity
same,dose that can be parenterally administered,mice and rats; parenteral,≤ 100 mg/kg
same,Equilibrium time,rats,9.9 ± 0.8 s
Acetyl-L-Carnitine-Lipoic acid conjugate [LC Conjugate],toxicity,C. elegans [5],No toxic effects; also recorded: no toxicity observed
same,cleavability,[6]; under experimental conditions,completely cleavable
same,Rate of hydrolysis (cleavage),"[6]; water, pH 5.5 to 8.0, RT",pH dependent
same,hydrolysis,"[6]; water, pH 6.0, RT (20° C.), TLC, visual observation",Mild hydrolysis
same,rate of hydrolysis,"[6]; water, pH 7.0 and above, RT (20° C.), TLC, visual observation",quite noticeable
same,time within which almost complete hydrolysis was noted,"[6]; water, pH 8.0, RT (20° C.), TLC, visual observation",≤ 90 min
same,stability,"[6]; water, under pH 5.0, RT (20° C.), TLC, visual observation",stable
same,sensitivity / response rate in 11 step dose response,C. elegans [7]; listed as LC,"increases sensitivity not at lower stimulus intensities, but instead at higher intensities"
same,sensitivity / response rate in 11 step dose response,C. elegans [7]; listed as Lipoic Acid+N-Acetyl Carnitine conjugate,Possible higher response rate at higher stimulus intensities
